# Measurements reported in article PMC2854649 (Biochemical and biophysical research communications, 2009).
# Where two headings read alike, the source gives them in different places.
# Assays:
# CD1 mice = assay type: in vivo, mouse; conditions: for Percent Surviving: CD1 mice, survival recorded for 24 hrs
# CD3+ human PBMCs = test: Radiation-induced apoptosis; assay type: cell-based; conditions: CD3+ human PBMCs exposed to 20 Gy radiation, Figure 1
# [1] = tested on: primary human lymphocytes (PBMCs); test: Cellular uptake and subcellular distribution of FITC-labeled peptides; assay type: cell-based; conditions: 5 μM fluorescein-labeled peptide, 1 h, RPMI with 10% FBS or serum-free PBS
# male C57Bl/6 mice = test: Post-exposure treatment after lethal total body irradiation; assay type: in vivo, mouse; conditions: 1 mg dose, data not shown
# C57Bl/6J mice = assay type: in vivo, mouse; conditions: 2 mg in 200 μL saline via tail-vein injection, N=6
substance,measurement,setting,value
"(d) ^1-Ac-RKKRR-Orn-RRR-COOH [TAT, reference compound]",Percent Surviving,CD1 mice; 2 mg i.p.,100%
same,Percent Surviving,CD1 mice; 5 mg i.p.,0%
Ac-KKKRKV-β-A-(l) ^1-SNRELVVDFLSDKLSQKGDS-COOH [NLS-BH4i],"Effect on radiation-induced apoptosis, in words",CD3+ human PBMCs,Neither TAT-BH4i nor NLS-BH4i had any appreciable effect
Ac-KKKRKV-β-A-(l) ^1-SNRELVVDFLSYKLSQKGYS-COOH [NLS-BH4],Percent Surviving,CD1 mice; 2 mg i.p.,100%
same,Percent Surviving,CD1 mice; 10 mg i.p.,100%
same,Percent Surviving,CD1 mice; 30 mg i.p.,100%
same,Tolerability of i.p. injections,"CD1 mice; 2, 5, or 0 mg i.p., N = 3 mice per group",without any apparent ill effects
same,"Uptake by PBMCs (fluorescence intensity, flow cytometry)",[1],less dependent on the presence of serum
same,Radiation-induced lymphocyte apoptosis in vivo (pilot study),male C57Bl/6 mice,significantly attenuated radiation-induced lymphocyte apoptosis
(d) ^1-Ac-RKKRR-Orn-RRR-β-A-(l) ^1-SNRELVVDFLSYKLSQKGYS-COOH [TAT-BH4],Appearance of mice the following day,CD1 mice; 2 mg i.p.,appeared normal
same,Percent Surviving,CD1 mice; 2 mg i.p.,100%
same,Percent Surviving,CD1 mice; 5 mg i.p.,75%
same,Appearance of surviving mice the following day,"CD1 mice; 5 mg or 20 mg i.p., necropsy: distended and edematous bowel, small necrotic foci",piloerection and distended abdomens
same,Percent Surviving,CD1 mice; 20 mg i.p.,25%
same,Time to death following injection,C57Bl/6J mice,3 to 5 min
(d) ^1-Ac-RKKRR-Orn-RRR-β-A-(l) ^1-SNRELVVDFLSDKLSQKGDS-COOH [TAT-BH4i],"Effect on radiation-induced apoptosis, in words",CD3+ human PBMCs,Neither TAT-BH4i nor NLS-BH4i had any appreciable effect
